Laboratory results reported in patent US20050106100A1, “Compounds containing matrix metalloproteinase substrates and methods of their use” (priority 2003, published 2005).

Legend:
Aminopeptidase N [1] = assay: Aminopeptidase N cleavage of test substrates (HPLC); assay type: biochemical; details: 1 mM test substrate, 0.02 U APN, 37° C., 25 minutes
Procedure: Aminopeptidase N cleaves amino acids at the N-terminus of proteins and peptides attached to another amino acid. The final attachment in our test substrates consists of an amino acid linked to a hydrazide. The cleavage of this amino acid by aminopeptidases exposes the reactive hydrazide species. Our goal was to study the cleavage of amide bond between an amino acid and a hydrazide by aminopeptidase N. A stock solution of test substrates was prepared in 100% DMSO at a concentration of 25 mM. The stock soluton (6 μL) was added to buffer (50 mM Hepes/pH 7.5, 10 mM CaCl2, 0.1% Brij) for a final concentration of 1 mM test substrate in the reaction. To this reaction mix 0.02 U of the enzyme (APN) was added, the solution was mixed, and immediately 67.5 μL of the mix was transferred to HPLC vials containing 33.2 μL of acetic acid for t=0 minute measurement. The rest of the mix in the test tube was incubated at 37° C. for 25 minutes. At the 25 minutes time point 67.5 μL of the mix was transferred to the HPLC vial containing 33.2 μl of acetic acid for t=25 minute measurement. […] The peak areas were integrated and the substrate peak area was used to determine rate constant k in the following equation: K={(% hydrolyzed/100)*[S]}/[E]*[time] where • S=test substrate concentration in μmoles • E=aminopeptidase N concentration in units/ml • K=μmoles of substrate hydrolyzed/minute/unit enzyme
The procedures of Examples 63 and 64 were used to prepare these additional enamides. The ability of aminopeptidase-N (APN) to remove the terminal amino acid was determined by using the procedure described in Example 46.

Aminopeptidase N [2] = assay: as above; assay type: biochemical; details: n = 2; for Rate, hydrolysis of N-terminal residue by APN (value in parenthesis): enzyme concentration […] 10^3 U; for Rate, hydrolysis of N-terminal residue by APN: enzyme concentration […] 10^4 U
THP-1 cells = assay: Lipid bilayer insertion / cell binding of test substrates; assay type: cell-based, human; details: live cell suspensions
Procedure: This assay was designed to study localization of test substrates in lipid bilayers of cells. THP-1 cell line a human monocytic cell line was used in this assay. THP-1 cells were washed with phosphate buffered saline (PBS) and 2×10^6 cells were used for each reaction in a 150 μL reaction volume. Test substrates were added to these cell suspensions to give a final concentration of 0.15 mM in the reaction. The reactions were incubated at 37° C. for 1 hour. The test compound in the supernatant was analyzed by HPLC and quantified. The level of compound in the supernatant in the presence and absence of cells was determined and the following ratio was generated: R=Level of compound in absence of cells/level of compound in the presence of cells
The ratio increases with increased binding to cells. A ratio of 1 denotes no binding to cells.

Rate of hydrolysis (min^−1, U^−1) (Aminopeptidase N [1])	SMILES	Rate, hydrolysis of N-terminal residue by APN (value in parenthesis) (Aminopeptidase N [2])	Rate, hydrolysis of N-terminal residue by APN (Aminopeptidase N [2])	further results
0.62 μmoles μmoles (min^−1, U^−1)	COc1ccc2cc(C(=O)NCCCCCC(=O)NNC(=O)[C@@H](N)CC(C)C)c(=O)oc2c1 [Example 9, N-((2S)-2-Amino-4-methylpentanoylamino)-6-[(7-methoxy-2-oxo(2H-chromen-3-yl))carbonylamino]hexanamide]	–	–	–
–	CCC/C=C(\CCC)NC(=O)[C@@H](N)CC(C)C [Example 333]	0.209 mmol substrate · min^−1 · U enzym^−1	0.264 mmol substrate · min^−1 · U enzym^−1	–
–	CC(=O)NCCCCCC/C=C/NC(=O)[C@@H](N)CC(C)C.O=CO [Example 63, N-[(1E)-8-(Acetylamino)oct-1-enyl](2S)-2-amino-4-methylpentanamide, Formic Acid Salt]	0.167 mmol substrate · min^−1 · U enzym^−1	0.202 mmol substrate · min^−1 · U enzym^−1	–
–	O=C(CCCCCCCc1ccc(O)cc1)NCCNC(=O)c1ccc(N/N=C/c2ccccc2S(=O)(=O)O)nc1 [Example 26, 2-((1E)-2-Aza-2-{[5-(N-{2-[8-(4-hydroxyphenyl)octanoylamino]ethyl}-carbamoyl)(2-pyridyl)]amino}vinyl)benzenesulfonic Acid]	–	–	association with cells (in words) (THP-1 cells): will associate with cells
0.6 μmoles μmoles (min^−1, U^−1)	CC(C)C[C@H](N)C(=O)NNC(=O)c1ccc(CNC(=O)c2ccc(N/N=C/c3ccccc3S(=O)(=O)O)nc2)cc1 [Example 8, 2-[(1E)-2-({5-[N-({4-[N-((2S)-2-Amino-4-methylpentanoylamino)carbamoyl]phenyl}methyl)carbamoyl](2-pyridyl)}amino)-2-azavinyl]benzenesulfonic Acid]	–	–	–
1.2 μmoles μmoles (min^−1, U^−1)	CC(C)C[C@H](N)C(=O)NNC(=O)c1ccc(N/N=C\c2ccccc2S(=O)(=O)O)nc1 [Example 7, 2-[2-({5-[N-((2S)-2-Amino-4-methylpentanoylamino)carbamoyl](2-pyridyl)}amino)(1Z)-2-azavinyl]benzenesulfonic Acid]	–	–	–
0 μmoles μmoles (min^−1, U^−1)	CC(C)C[C@H](N)C(=O)NNc1ccc(C(=O)NCCNC(=O)c2ccc(N/N=C/c3ccccc3S(=O)(=O)O)nc2)cc1 [Example 6, 2-{(1E)-2-[(5-{N-[2-({4-[((2S)-2-Amino-4-methylpentanoylamino)amino]phenyl}carbonylamino)ethyl]carbamoyl}(2-pyridyl))amino]-2-azavinyl}benzenesulfonic Acid]	–	–	–
–	CCC/C=C(\CCC)NC(=O)[C@H](C)NC(=O)[C@@H](N)CC(C)C [Example 332]	0.802 mmol substrate · min^−1 · U enzym^−1	1.89 mmol substrate · min^−1 · U enzym^−1	–

SMILES	Rate of hydrolysis (min^−1, U^−1) (Aminopeptidase N [1])	Rate, hydrolysis of N-terminal residue by APN (value in parenthesis) (Aminopeptidase N [2])	Rate, hydrolysis of N-terminal residue by APN (Aminopeptidase N [2])	further results
CC(C)C[C@H](N)C(=O)Nc1ccc(COC(=O)NNC(=O)CCCCCNC(=O)c2ccc(N/N=C/c3ccccc3S(=O)(=O)O)nc2)cc1 [Example 24, 2-((1E)-2-{[5-(N-{5-[N-({[4-((2S)-2-Smino-4-methylpentanoylamino)phenyl]methoxy}carbonylamino)carbamoyl]pentyl}carbamoyl)(2-pyridyl)]amino}-2-azavinyl)benzenesulfonic Acid]	0.52 μmoles μmoles (min^−1, U^−1)	–	–	–
